Data taken from patent US12486280B2, “CDK inhibitors and uses thereof” (California Institute of Technology, priority 2018, dated 2025).
≈ marks a conversion by molar mass, not a printed value. Where two headings read alike, the source gives them in different places.

Assays:
[1] = target: CDK4 (Homo sapiens (Human), UniProt P11802); assay: Cdk4 and 6 Enzymatic Inhibition Assay (radiometric 33PanQinase, Ki determination); assay type: biochemical
Method in brief: (§1)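 Radiometric 33PanQinase assay in 70 mM HEPES-NaOH pH 7.5 with 3 mM MgCl2, 3 mM MnCl2, [γ-33P]-ATP, kinase and substrate; 60 min at 30° C, 1% DMSO final. Ten final concentrations from 2×10^−6 M to 6×10^−11 M; 33Pi incorporation counted by scintillation after H3PO4 stop.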

[2] = target: CDK6 (Homo sapiens (Human), UniProt Q00534); assay: as above; assay type: biochemical
Chain of CDK6 (Q00534 whole entry): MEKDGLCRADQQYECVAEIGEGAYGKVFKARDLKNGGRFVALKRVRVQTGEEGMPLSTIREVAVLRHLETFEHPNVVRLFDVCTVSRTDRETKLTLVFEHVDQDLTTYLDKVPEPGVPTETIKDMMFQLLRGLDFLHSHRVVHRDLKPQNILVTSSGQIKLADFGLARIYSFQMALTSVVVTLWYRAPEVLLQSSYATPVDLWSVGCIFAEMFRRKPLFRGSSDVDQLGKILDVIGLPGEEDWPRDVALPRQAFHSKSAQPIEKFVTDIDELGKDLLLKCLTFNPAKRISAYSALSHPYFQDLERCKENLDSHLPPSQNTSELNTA
Chain of CDK6 (P24385 whole entry partner): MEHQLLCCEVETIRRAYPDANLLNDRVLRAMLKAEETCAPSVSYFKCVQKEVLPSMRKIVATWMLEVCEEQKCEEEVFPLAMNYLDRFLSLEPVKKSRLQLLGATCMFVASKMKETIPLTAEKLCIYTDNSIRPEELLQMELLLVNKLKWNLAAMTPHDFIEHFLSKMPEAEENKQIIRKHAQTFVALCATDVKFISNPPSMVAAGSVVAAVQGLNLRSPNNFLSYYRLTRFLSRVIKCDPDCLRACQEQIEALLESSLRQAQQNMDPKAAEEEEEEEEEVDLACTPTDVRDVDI
Method in brief: as §1

[3] = test system: drug-sensitive cell lines of Table 2 (EFM-19, MDA-MB-453, T-47D, ZR-75-1, NCI-H441, OVTOKO, NCI-H1838); assay: Cell Line Growth Retardation Assay, sensitive cohort; assay type: cell-based, human; settings: for IC50: Homo sapiens, geometric mean over sensitive cohort, 6 days growth, read-out: AvgSensIC50; for Ther Window: average IC50 drug-resistant group divided by average IC50 drug-sensitive group
Method in brief: (§2)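 Cells rested 24 h, then exposed 6 days to compound at 10, 2, 0.4, 0.08, 0.016 and 0.0032 μM; counted by imaging on day 0 and day 6. Growth inhibition as ratio of population doublings versus vehicle; IC50 from curve fits, cohort values as geometric means.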

[4] = test system: drug-resistant cell lines of Table 2 (NCI-H1437, OV207, HCC1806, NCI-H2172); assay: Cell Line Growth Retardation Assay, resistant cohort; assay type: cell-based, human; settings: Homo sapiens, […], geometric mean over resistant cohort; 6 days growth; read-out: AvgResIC50
Method in brief: as §2

[5] = Compound Solubility Assay (kinetic solubility); assay type: physicochemical
Experimental: The relative kinetic solubility of each compound was determined at both low (1.2) and neutral (7.4) pH. Compounds were prepared at 10 mM stocks. […] Compounds were allowed to shake at room temperature for 24 hours in 50 mM phosphate buffer pH 7.4, or in SGF buffer pH 1.2 at 37° C. for 24 hours.

[6] = Caco-2 Assay (Papp A to B); settings: human, Caco-2, pH 7.4
Experimental: The degree of bi-directional human intestinal permeability for compounds was estimated using a Caco-2 cell permeability assay. Caco-2 cells were seeded onto polyethylene membranes in 96-well plates. The growth medium was refreshed every 4 to 5 days until cells formed a confluent cell monolayer. HBSS with 10 mM HEPES at pH 7.4 was used as the transport buffer. Compounds were tested at 2 μM bi-directionally in duplicate. Digoxin, nadolol and metoprolol were included as standards. Digoxin was tested at 10 μM bi-directionally in duplicate, while nadolol and metoprolol were tested at 2 μM in the A to B direction in duplicate. The final DMSO concentration was adjusted to less than 1% for all experiments. The plate was incubated for 2 hours in a CO2 incubator at 37° C., with 5% CO2 at saturated humidity. After incubation, all wells were mixed with acetonitrile containing an internal standard, and the plate was centrifuged at 4,000 rpm for 10 minutes. 100 μL supernatant was collected from each well and diluted with 100 μL distilled water for LC/MS/MS analysis. Concentrations of test and control compounds in starting solution, donor solution, and receiver solution were quantified by LC/MS/MS, using peak area ratio of analyte/internal standard. The apparent permeability coefficient Papp (cm/s) was calculated using the equation: Papp=(dCr/dt)×Vr/(A×C0) Where dCr/dt is the cumulative concentration of compound in the receiver chamber as a function of time (μM/s); Vr is the solution volume in the receiver chamber (0.075 mL on the apical side, 0.25 mL on the basolateral side); A is the surface area for the transport, which is 0.0804 cm^2 for the area of the monolayer; C0 is the initial concentration in the donor chamber (μM).

[7] = test system: CYP isozymes (IC50s averaged over the isozymes); assay: CYP Enzymatic Inhibition Assay in human liver microsomes
Experimental: Inhibition of various CYP isozymes was measured for each compound using a CYP enzyme inhibition assay in human liver microsomes (HLM). Compounds and standard inhibitors were prepared at a 100× working solutions. Substrates or PBS were added to the corresponding wells followed by addition of compounds, solvent or positive control working solution to corresponding wells. HLMs were added to the pre-warmed (37° C.) plate and mixed with NADPH cofactor for 10 minutes at 37° C. The reaction was terminated by adding 400 μL cold stop solution (200 ng/mL Tolbutamide and 200 ng/mL Labetalol in ACN). The plate was centrifuged at 4,000 rpm for 20 minutes, and supernatant was transferred to 100 μL HPLC water followed by LC/MS/MS analysis.

[8] = Measurement of Compound Metabolic Stability in hepatocytes
[9] = target: hERG potassium channels (Homo sapiens (Human), UniProt Q12809); assay: hERG Inhibition Assay (QPatch automated patch clamp, CHO cells); settings: percent of control current
Chain of hERG potassium channels (Q12809 whole entry): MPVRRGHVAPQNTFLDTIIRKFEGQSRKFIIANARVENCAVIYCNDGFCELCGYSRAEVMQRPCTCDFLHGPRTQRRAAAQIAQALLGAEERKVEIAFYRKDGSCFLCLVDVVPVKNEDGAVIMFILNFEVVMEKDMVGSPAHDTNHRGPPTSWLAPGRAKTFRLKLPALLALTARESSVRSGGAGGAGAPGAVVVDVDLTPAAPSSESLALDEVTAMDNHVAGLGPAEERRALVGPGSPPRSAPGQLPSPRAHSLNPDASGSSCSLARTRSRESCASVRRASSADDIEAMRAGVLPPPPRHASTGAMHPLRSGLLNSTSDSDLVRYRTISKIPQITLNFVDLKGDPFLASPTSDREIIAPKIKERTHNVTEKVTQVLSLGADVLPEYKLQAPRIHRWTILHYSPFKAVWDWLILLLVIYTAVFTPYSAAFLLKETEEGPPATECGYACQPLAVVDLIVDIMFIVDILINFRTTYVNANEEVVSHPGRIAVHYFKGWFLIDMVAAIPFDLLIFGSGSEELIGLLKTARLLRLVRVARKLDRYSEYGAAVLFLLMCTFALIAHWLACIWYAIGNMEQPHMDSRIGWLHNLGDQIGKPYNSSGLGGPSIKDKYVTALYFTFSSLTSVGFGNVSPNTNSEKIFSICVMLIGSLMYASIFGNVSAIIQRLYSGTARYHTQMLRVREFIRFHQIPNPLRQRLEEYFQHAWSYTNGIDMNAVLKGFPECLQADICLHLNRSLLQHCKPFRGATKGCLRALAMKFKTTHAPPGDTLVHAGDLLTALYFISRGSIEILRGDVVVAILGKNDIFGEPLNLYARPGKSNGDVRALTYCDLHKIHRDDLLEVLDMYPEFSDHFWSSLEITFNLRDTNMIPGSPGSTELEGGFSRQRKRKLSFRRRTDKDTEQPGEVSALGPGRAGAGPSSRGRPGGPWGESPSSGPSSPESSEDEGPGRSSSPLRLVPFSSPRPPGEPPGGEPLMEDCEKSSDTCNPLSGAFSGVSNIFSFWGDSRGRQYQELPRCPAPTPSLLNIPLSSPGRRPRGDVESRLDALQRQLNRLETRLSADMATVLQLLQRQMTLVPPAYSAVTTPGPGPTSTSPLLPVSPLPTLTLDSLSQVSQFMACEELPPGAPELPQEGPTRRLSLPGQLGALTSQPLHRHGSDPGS
Experimental: Effects of compounds on hERG potassium channel conductance was assessed using the automated patch clamp method QPatch^HTX. Compounds were prepared at 10 mM stocks. CHO cells stably expressing hERG potassium channels were used for this assay. Cells were cultured in a humidified and air-controlled 5% CO2) incubator at 37° C. Compound stocks and the positive control Amitriptyline were dissolved in 100% DMSO to make various solution concentrations. These solutions were further diluted into extracellular solution to achieve final concentrations for testing. The final DMSO concentration in extracellular solution was 0.30%. The hERG QPatch^HTX assay was conducted at room temperature.
The following voltage command protocol was used: • From the holding potential of −80 mV, the voltage was first stepped to −50 mV for 80 ms for leak subtraction, and then stepped to +20 mV for 4,800 ms to open hERG channels. • After which, the voltage was stepped back down to −50 mV for 5,000 ms, causing a “rebound” or tail current, which was measured and collected for data analysis. • Finally, the voltage was stepped back to the holding potential of −80 mV for 3,100 ms.
For each experiment, three additions of 5 μL of the vehicle were applied, followed by 30 runs of the voltage command protocol for a baseline period. Then, the ascending doses of each compound were added with three repetitions (5 μL of compound each time).

[10] = 50 mM phosphate buffer, pH 7.4, aqueous buffer, kinetic from dmso stock, read-out: KS7
[11] = simulated gastric fluid, kinetic from dmso stock, kinetic solubility, SGF buffer pH 1.2, 37° C., 24 hours, read-out: KS1

Chain of CDK4 (P11802 whole entry): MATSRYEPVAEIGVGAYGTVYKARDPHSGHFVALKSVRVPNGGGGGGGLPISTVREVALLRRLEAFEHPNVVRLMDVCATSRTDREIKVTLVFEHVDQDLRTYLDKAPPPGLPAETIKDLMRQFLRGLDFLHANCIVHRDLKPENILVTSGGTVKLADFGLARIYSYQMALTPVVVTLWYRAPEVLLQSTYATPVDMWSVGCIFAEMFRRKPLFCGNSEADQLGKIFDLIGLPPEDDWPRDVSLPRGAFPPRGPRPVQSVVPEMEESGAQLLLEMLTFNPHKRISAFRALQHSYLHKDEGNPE
Chain of CDK4 (P24385 whole entry partner): as the sequence (P24385 whole entry partner) above

SMILES | Ki [1] [nM] | Ki [2] [nM] | IC50 [3] [nM] | IC50 [4] [nM] | solubility kinetic at 24 h [5, 10] [µM] | solubility kinetic at 24 h [5, 11] [µM] | Papp A→B at 2 h, 2 μM [6] [×10⁻⁶ cm/s] | IC50 at 10 min [7] [nM] | half-life at 1 μM [8] [h] | solubility kinetic at 24 h ([5]; kinetic solubility, SGF buffer pH 1.2, 37° C., 24 hours, read-out: KS1) [µM] | Ther Window [3] | hERG [9] [%]
CCN(CC)CCC1(C)CN(Cc2ccc(Nc3ncc(F)c(-c4cc(F)c5nc(C)n(C(C)C)c5c4)n3)nc2)CCO1 (stereo in doubt) [Compound A3, (S)—N-(5-((2-(2-(diethylamino)ethyl)-2-methylmorpholino)methyl)pyridin-2-yl)-5-fluoro-4-(4-fluoro-1-isopropyl-2-methyl-1H-benzo[d]imidazol-6-yl)pyrimidin-2-amine] | 2.04 | 7.39 | 70 | 1000 | 163 (≈ 96.6 µg/mL) | 200 (≈ 119 µg/mL) | 0.05 | 37200 | 2.17 |  | 13.77 | 26.68
CC(=O)N(C)CC[C@]1(C)CN(Cc2ccc(Nc3ncc(F)c(-c4cc(F)c5nc(C)n(C(C)C)c5c4)n3)nc2)CCO1 [Compound A8, (R)—N-(2-(4-((6-((5-fluoro-4-(4-fluoro-1-isopropyl-2-methyl-1H-benzo[d]imidazol-6-yl)pyrimidin-2-yl)amino)pyridin-3-yl)methyl)-2-methylmorpholin-2-yl)ethyl)-N-methylacetamide] | 1.76 | 11.3 | 170 | 970 | 128 (≈ 76.1 µg/mL) | 200 (≈ 119 µg/mL) | 2.35 | 30900 | 0.0707 |  | 5.64 | 11.87
Cc1nc2c(F)cc(-c3nc(Nc4ccc(CN5CCO[C@](C)(CCNCC(F)(F)F)C5)cn4)ncc3F)cc2n1C(C)C [Compound A9, (R)-5-fluoro-4-(4-fluoro-1-isopropyl-2-methyl-1H-benzo[d]imidazol-6-yl)-N-(5-((2-methyl-2-(2-((2,2,2-trifluoroethyl)amino)ethyl)morpholino)methyl)pyridin-2-yl)pyrimidin-2-amine] | 2.54 | 14.5 | 120 | 1000 | 1 (≈ 0.619 µg/mL) | 200 (≈ 124 µg/mL) | 2.14 | 26100 | 0.254 |  | 8.59 | 21.86
Cc1nc2c(F)cc(-c3nc(Nc4ccc(CN5CCO[C@](C)(CCN6CC(F)(F)C6)C5)cn4)ncc3F)cc2n1C(C)C [Compound A12, (R)—N-(5-((2-(2-(3,3-difluoroazetidin-1-yl)ethyl)-2-methylmorpholino)methyl)pyridin-2-yl)-5-fluoro-4-(4-fluoro-1-isopropyl-2-methyl-1H-benzo[d]imidazol-6-yl)pyrimidin-2-amine] | 2.18 | 12.8 | 110 | 860 | 1 (≈ 0.613 µg/mL) |  | 2.62 | 21600 | 0.218 | 200.00 (≈ 123 µg/mL) | 8.17 | 19.54
COC1(C)CN(CC[C@]2(C)CN(Cc3ccc(Nc4ncc(F)c(-c5cc(F)c6nc(C)n(C(C)C)c6c5)n4)nc3)CCO2)C1 [Compound A18, (R)-5-fluoro-4-(4-fluoro-1-isopropyl-2-methyl-1H-benzo[d]imidazol-6-yl)-N-(5-((2-(2-(3-methoxy-3-methylazetidin-1-yl)ethyl)-2-methylmorpholino)methyl)pyridin-2-yl)pyrimidin-2-amine] | 1.55 | 7.62 | 90 | 920 |  |  | 0.11 | 26800 | 1.13 |  | 10.77 | 21.45
Cc1nc2c(F)cc(-c3nc(Nc4ccc(CN5CCO[C@](C)(CCN6CCOCC6)C5)cn4)ncc3F)cc2n1C(C)C [Compound A19, (R)-5-fluoro-4-(4-fluoro-1-isopropyl-2-methyl-1H-benzo[d]imidazol-6-yl)-N-(5-((2-methyl-2-(2-morpholinoethyl)morpholino)methyl)pyridin-2-yl)pyrimidin-2-amine] | 1.37 | 7.07 | 190 | 970 | 139 (≈ 84.2 µg/mL) | 200 (≈ 121 µg/mL) | 0.91 | 29000 | 0.28 |  | 5.12 | 18.14

Now from value to compound, other results behind:

Ki [1] [nM] | Ki [2] [nM] | IC50 [3] [nM] | IC50 [4] [nM] | solubility kinetic at 24 h [5, 10] [µM] | solubility kinetic at 24 h [5, 11] [µM] | Papp A→B at 2 h, 2 μM [6] [×10⁻⁶ cm/s] | IC50 at 10 min [7] [nM] | half-life at 1 μM [8] [h] | solubility kinetic at 24 h ([5]; kinetic solubility, SGF buffer pH 1.2, 37° C., 24 hours, read-out: KS1) [µM] | SMILES | Ther Window [3] | hERG [9] [%]
0.55 | 3.69 | 80 | 1000 |  |  | 0.07 | 24800 | 1.68 |  | CC[C@@]1(CCN(C)C)CN(Cc2ccc(Nc3ncc(F)c(-c4cc(F)c5nc(C)n(C(C)C)c5c4)n3)nc2)CCO1 [Compound A20, (R)—N-(5-((2-(2-(dimethylamino)ethyl)-2-ethylmorpholino)methyl)pyridin-2-yl)-5-fluoro-4-(4-fluoro-1-isopropyl-2-methyl-1H-benzo[d]imidazol-6-yl)pyrimidin-2-amine] | 12.21 | 32.36
0.52 | 3.55 | 80 | 870 | 15.6 (≈ 8.57 µg/mL) | 200 (≈ 110 µg/mL) | 0.05 | 35800 | 3.37 |  | CNCC[C@@]1(C)CN(Cc2ccc(Nc3ncc(F)c(-c4cc(F)c5nc(C)n(C(C)C)c5c4)n3)nc2)CCO1 [Compound A22, (S)-5-fluoro-4-(4-fluoro-1-isopropyl-2-methyl-1H-benzo[d]imidazol-6-yl)-N-(5-((2-methyl-2-(2-(methylamino)ethyl)morpholino)methyl)pyridin-2-yl)pyrimidin-2-amine] | 10.57 | 15.58
1.73 | 8.63 | 130 | 770 | 140 (≈ 81.2 µg/mL) | 200 (≈ 116 µg/mL) | 0.03 | 51500 | 1.49 |  | Cc1nc2c(F)cc(-c3nc(Nc4ccc(CN5CCO[C@](C)(C[C@@H](C)N(C)C)C5)cn4)ncc3F)cc2n1C(C)C [Compound A26] | 6.10 | 39.08
1.21 | 6.57 | 80 | 900 | 107 (≈ 61.9 µg/mL) | 200 (≈ 116 µg/mL) | 0.06 | 25800 | 1.19 |  | Cc1nc2c(F)cc(-c3nc(Nc4ccc(CN5CCO[C@](C)(C[C@H](C)N(C)C)C5)cn4)ncc3F)cc2n1C(C)C [Compound A27] | 11.50 | 24.78
1.8 | 10.5 | 170 | 890 |  |  | 1.95 | 16400 | 0.0973 |  | Cc1nc2c(F)cc(-c3nc(Nc4ccc(CN5CCO[C@](C)(CCN(C)CC(F)F)C5)cn4)ncc3F)cc2n1C(C)C [Compound A29, (R)—N-(5-((2-(2-((2,2-difluoroethyl)(methyl)amino)ethyl)-2-methylmorpholino)methyl)pyridin-2-yl)-5-fluoro-4-(4-fluoro-1-isopropyl-2-methyl-1H-benzo[d]imidazol-6-yl)pyrimidin-2-amine] | 5.36 | 25.45
